Results reported in ChEMBL document CHEMBL3046741, “Initial activity and persistence of insecticides for the control of bollworms (Lepidoptera: Noctuidae) in cotton crops” (2009).

Experiments:
Type in all cases: functional
Earias = test: Insecticidal activity against L3 to L4 larvae of Earias spp. assessed as mortality after 48 hr by leaf disk assay
Diparopsis watersi = test: Insecticidal activity against L3 to L4 larvae of Diparopsis watersi assessed as mortality after 48 hr by leaf disc assay
Helicoverpa armigera [1] = test: Insecticidal activity against L2 larvae of Helicoverpa armigera assessed as mortality after 48 hr by leaf disk assay
Helicoverpa armigera [2] = test: Insecticidal activity against L5 larvae of Helicoverpa armigera assessed as mortality after 48 hr by leaf disk assay
Helicoverpa armigera [3] = test: Insecticidal activity against Helicoverpa armigera assessed as time above which insecticide kills less than 50% of larvae by measuring index of persistence in presence of 24 mm of simulated rain applied at three days interval
Helicoverpa armigera [4] = test: Insecticidal activity against L4 larvae of Helicoverpa armigera assessed as mortality after 48 hr by leaf disk assay
Helicoverpa armigera [5] = test: Insecticidal activity against L1 larvae of Helicoverpa armigera assessed as mortality after 48 hr by leaf disk assay
Helicoverpa armigera [6] = test: Insecticidal activity against Helicoverpa armigera assessed as time above which insecticide kills less than 50% of larvae by measuring index of persistence under in absence of rain
Helicoverpa armigera [7] = test: Insecticidal activity against L3 larvae of Helicoverpa armigera assessed as mortality after 48 hr by leaf disk assay

Compound	mortality (Earias) [%]	mortality (Diparopsis watersi) [%]	mortality (Helicoverpa armigera [1]) [%]	mortality (Helicoverpa armigera [2]) [%]	Time (Helicoverpa armigera [3]) [days]	mortality (Helicoverpa armigera [4]) [%]	mortality (Helicoverpa armigera [5]) [%]	Time (Helicoverpa armigera [6]) [days]	mortality (Helicoverpa armigera [7]) [%]
O=S1OCC2C(CO1)C1(Cl)C(Cl)=C(Cl)C2(Cl)C1(Cl)Cl (configuration not stated) [ENDOSULFAN]	99.4	82.8	91.5	92.5	5.2	89.5	93.3	8.7	94.1
COC(=O)N(C(=O)N1CO[C@@]2(C(=O)OC)Cc3cc(Cl)ccc3C2=N1)c1ccc(OC(F)(F)F)cc1 [INDOXACARB]	90.8	77.7	78.9	94.5	3.7	90.9	86.2	8.4	89.3
CS/C(C)=N\OC(=O)N(C)SN(C)C(=O)O/N=C(\C)SC [THIODICARB]	100	99.3	99.2	96.5	17.2	97.5	98.6	27	94.1
